In doi:10.1101/822718v2 (biorxiv, 2020) one finds Emax, EC50 and IC50 data, which are given here for seven compounds.

The target in assay [1] is T1, truncated elephant shark GR (Elephant shark GR-DBD-hinge-LBD) (Callorhinchus milii, UniProt V9KGN8).
T1 sequence (V9KGN8 346-704 limits assumed): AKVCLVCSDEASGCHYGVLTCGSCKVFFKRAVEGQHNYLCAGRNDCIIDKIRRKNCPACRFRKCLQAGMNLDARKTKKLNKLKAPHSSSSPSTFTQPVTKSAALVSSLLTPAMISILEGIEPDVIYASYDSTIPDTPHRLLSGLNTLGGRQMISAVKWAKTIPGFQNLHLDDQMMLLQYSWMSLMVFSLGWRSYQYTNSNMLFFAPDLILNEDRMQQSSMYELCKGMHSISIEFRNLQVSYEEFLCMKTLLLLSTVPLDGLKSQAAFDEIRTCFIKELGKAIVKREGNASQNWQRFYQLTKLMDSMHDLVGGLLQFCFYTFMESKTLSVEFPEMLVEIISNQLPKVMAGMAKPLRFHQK
The assay is described as follows: cell-based. The arrangement: species or system HEK293.

Assay [2] deals with T2, full-length elephant shark MR (Callorhinchus milii, UniProt A0A4W3I5J5).
T2 sequence (A0A4W3I5J5 1-956): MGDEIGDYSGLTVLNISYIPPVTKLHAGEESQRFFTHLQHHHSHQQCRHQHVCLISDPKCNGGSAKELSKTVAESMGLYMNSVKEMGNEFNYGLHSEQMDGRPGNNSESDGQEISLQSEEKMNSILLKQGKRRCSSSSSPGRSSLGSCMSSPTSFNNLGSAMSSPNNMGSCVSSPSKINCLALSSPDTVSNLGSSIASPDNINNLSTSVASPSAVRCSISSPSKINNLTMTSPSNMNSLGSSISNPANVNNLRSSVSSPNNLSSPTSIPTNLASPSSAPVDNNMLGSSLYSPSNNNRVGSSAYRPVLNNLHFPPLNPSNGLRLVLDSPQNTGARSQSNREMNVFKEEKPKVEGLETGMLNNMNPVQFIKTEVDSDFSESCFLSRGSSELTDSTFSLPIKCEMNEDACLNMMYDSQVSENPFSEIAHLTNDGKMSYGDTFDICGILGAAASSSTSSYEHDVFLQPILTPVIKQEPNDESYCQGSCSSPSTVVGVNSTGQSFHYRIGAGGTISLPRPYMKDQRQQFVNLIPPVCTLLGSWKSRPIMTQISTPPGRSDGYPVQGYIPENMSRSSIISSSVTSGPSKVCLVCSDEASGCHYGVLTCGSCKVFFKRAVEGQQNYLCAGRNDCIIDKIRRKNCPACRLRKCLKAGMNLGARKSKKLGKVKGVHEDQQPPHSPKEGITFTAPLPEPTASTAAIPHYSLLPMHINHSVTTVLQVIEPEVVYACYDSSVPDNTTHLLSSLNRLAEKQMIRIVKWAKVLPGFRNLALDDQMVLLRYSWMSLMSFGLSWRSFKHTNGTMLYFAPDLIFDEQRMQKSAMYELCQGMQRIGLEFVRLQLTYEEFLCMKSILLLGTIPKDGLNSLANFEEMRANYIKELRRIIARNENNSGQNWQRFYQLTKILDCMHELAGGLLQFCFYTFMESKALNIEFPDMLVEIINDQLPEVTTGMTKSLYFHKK
The assay is described as follows: cell-based. The arrangement: species or system HEK293.

Assay [3] deals with Elephant shark Chimera GR-NTD+MR-DBD-hinge-LBD. The settings on record: agonist.
Assay [4] concerns the target T3, full-length elephant shark GR (Callorhinchus milii, UniProt V9KGN8).
T3 sequence (V9KGN8 1-704): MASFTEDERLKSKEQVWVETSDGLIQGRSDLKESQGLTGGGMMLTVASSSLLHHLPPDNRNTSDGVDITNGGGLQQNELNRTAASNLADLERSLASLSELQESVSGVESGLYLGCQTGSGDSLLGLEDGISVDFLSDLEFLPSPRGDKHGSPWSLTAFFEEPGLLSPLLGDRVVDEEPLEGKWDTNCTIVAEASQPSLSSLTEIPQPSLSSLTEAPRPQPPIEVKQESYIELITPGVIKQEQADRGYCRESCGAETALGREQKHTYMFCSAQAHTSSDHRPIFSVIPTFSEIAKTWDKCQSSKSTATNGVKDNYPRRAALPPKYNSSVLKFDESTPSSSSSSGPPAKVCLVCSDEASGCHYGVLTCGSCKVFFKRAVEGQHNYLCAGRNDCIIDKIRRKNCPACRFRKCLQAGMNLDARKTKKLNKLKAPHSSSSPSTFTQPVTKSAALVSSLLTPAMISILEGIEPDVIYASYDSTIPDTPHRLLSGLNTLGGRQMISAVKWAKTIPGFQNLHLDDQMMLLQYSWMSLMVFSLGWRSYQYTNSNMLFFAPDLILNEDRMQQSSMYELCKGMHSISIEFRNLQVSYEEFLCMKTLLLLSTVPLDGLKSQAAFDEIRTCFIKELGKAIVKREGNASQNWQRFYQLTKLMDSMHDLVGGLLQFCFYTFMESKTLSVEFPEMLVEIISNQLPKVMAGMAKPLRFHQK
As to the kind of experiment: cell-based. Details: species or system HEK293.

For assay [5], the target named is T3, full-length elephant shark GR. As to the kind of experiment: transactivation assay, MMTV-luciferase reporter, HEK293 cells. Format: cell-based. On the technique in general: Reporter assays use an easily measured gene product as a stand-in for the process of interest.
Assay [6] has as its target truncated elephant shark MR (Elephant shark MR-DBD-hinge-LBD) (Callorhinchus milii, UniProt A0A4W3I5J5). The assay is described as follows: cell-based.
Assay [7] addresses T4, truncated elephant shark MR (Elephant shark MR-DBD-hinge-LBD) (Callorhinchus milii, UniProt A0A4W3I5J5).
T4 sequence (A0A4W3I5J5 575-956 limits assumed): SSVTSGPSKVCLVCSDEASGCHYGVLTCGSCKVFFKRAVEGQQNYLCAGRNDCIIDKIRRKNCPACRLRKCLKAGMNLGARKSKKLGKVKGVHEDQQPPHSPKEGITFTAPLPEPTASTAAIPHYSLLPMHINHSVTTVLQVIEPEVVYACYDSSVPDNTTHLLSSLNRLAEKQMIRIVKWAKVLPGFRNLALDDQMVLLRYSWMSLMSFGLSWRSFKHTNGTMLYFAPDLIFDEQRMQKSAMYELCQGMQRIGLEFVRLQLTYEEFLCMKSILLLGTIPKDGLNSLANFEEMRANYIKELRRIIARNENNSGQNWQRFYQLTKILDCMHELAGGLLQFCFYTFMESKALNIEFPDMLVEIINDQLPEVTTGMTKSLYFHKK
The assay is described as follows: cell-based. Details: species or system HEK293.

The target of assay [8] is T4, truncated elephant shark MR (Elephant shark MR-DBD-hinge-LBD). As to the kind of experiment: cell-based. The arrangement: species or system HEK293. This is another data set of the same source.
Assay [9] deals with T3, full-length elephant shark GR. As to the kind of experiment: inhibition of dexamethasone-activated luciferase reporter, HEK293 cells. Format: cell-based.
For assay [10] the target is unchanged. The assay is described as follows: luciferase reporter transactivation, HEK293 cells. In kind it is cell-based.
In assay [11] the target is T5, GAL4-DBD+elephant shark GR-hinge-LBD (Callorhinchus milii, UniProt V9KGN8).
T5 sequence (V9KGN8 422-704 limits assumed): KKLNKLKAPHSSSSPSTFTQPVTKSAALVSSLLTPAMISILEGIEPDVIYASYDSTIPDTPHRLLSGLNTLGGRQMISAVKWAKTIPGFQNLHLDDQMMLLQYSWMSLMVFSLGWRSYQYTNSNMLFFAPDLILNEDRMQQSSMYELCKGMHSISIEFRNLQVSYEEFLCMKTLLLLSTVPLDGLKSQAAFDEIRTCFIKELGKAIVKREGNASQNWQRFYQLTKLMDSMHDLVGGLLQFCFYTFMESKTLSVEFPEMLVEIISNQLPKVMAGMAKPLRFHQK
As to the kind of experiment: cell-based. Details: species or system HEK293.

The test system of assay [12] is Elephant shark Chimera MR-NTD+GR-DBD-hinge-LBD. As to the kind of experiment: transactivation assay, MMTV-luciferase reporter, HEK293 cells. Format: cell-based, Callorhinchus milii. The following applies: agonist.
Setting [13] is: HEK293, read-out: DOC % Relative Induction, GR.
[14] abbreviates: HEK293, read-out: DOC % Relative Induction, MR.
[15] abbreviates: HEK293, read-out: Aldo % Relative Induction, GR.
The mark [16] stands for this setting: HEK293, read-out: Corticosterone % Relative Induction, GR.
[17] abbreviates: HEK293, read-out: Corticosterone % Relative Induction, MR.
[18] abbreviates: HEK293, read-out: Cortisol % Relative Induction, GR.
[19] abbreviates: HEK293, read-out: Cortisol % Relative Induction, MR.
Setting [20] is: HEK293, read-out: Prog % Relative Induction, MR.

pEC50, pIC50: −log10 of the molar value. Read-outs that look alike come from different tables or passages of the source.

Turning to `C[C@]12CC[C@H]3[C@@H](CCC4=CC(=O)CC[C@@]43C)[C@@H]1CC[C@@H]2C(=O)CO` [11-deoxycorticosterone], the Emax in assay [1] (setting [13]) was 30%; in [2] (setting [14]), 86%; in assay [4] (setting [13]), 53%; in assay [7] (setting [14]) it was 77%. Further, the figures for the negative logarithm of the EC50 (pEC50) in assay [3], in assay [5] and in [6] were 10.52, around 7.55 and 10.00, respectively.

For `CC(=O)[C@H]1CC[C@H]2[C@@H]3CCC4=CC(=O)CC[C@@H]4[C@H]3CC[C@]12C` [19norProg], the Emax in assay [2] (HEK293, read-out: 19norProg % Relative Induction, MR) was found to be 79%. In addition, the pEC50 in assay [8] was 9.70.

In assay [9], `CC#C[C@]1(O)CC[C@H]2[C@@H]3CCC4=CC(=O)CCC4=C3[C@@H](c3ccc(N(C)C)cc3)C[C@@]21C` [RU486] showed a pIC50 of 8.66. For the same compound, the negative-log EC50 (pEC50) in assay [10] is 8.06.

Take `C[C@]12CCC(=O)C=C1CC[C@@H]1[C@@H]2[C@@H](O)C[C@]2(C=O)[C@@H](C(=O)CO)CC[C@@H]12` [aldosterone]: the Emax in assay [1] (setting [15]) was found to be 109%; in assay [4] (setting [15]) it was 92%; in [11] (setting [15]), 81%. The values for the pEC50 in [5] and in [8] were around 7.62 and 9.59, respectively.

As for `C[C@]12C[C@H](O)[C@H]3[C@@H](CCC4=CC(=O)CC[C@@]43C)[C@@H]1CC[C@@H]2C(=O)CO` [corticosterone], the Emax in assay [1] (setting [16]) is 100%; in assay [2] (setting [17]) it was 88%; in assay [4] (setting [16]), 100%; in assay [11] (setting [16]) it was 100%; in [7] (setting [17]), 111%. The results for the negative logarithm of the EC50 (pEC50) in assay [12] and in assay [8] were 7.89 and 9.24, respectively.

For the compound `C[C@]12CCC(=O)C=C1CC[C@@H]1[C@@H]2[C@@H](O)C[C@@]2(C)[C@H]1CC[C@]2(O)C(=O)CO` [cortisol], the Emax in [1] (setting [18]) came out at 112%; in assay [2] (setting [19]), 118%; in assay [4] (setting [18]), 88%; in [7] (setting [19]), 117%. In addition, the negative logarithm of the EC50 (pEC50) in assay [5] is around 7.46; in assay [8] it was 8.96.

`CC(=O)[C@H]1CC[C@H]2[C@@H]3CCC4=CC(=O)CC[C@]4(C)[C@H]3CC[C@]12C` [progesterone]: the Emax in assay [2] (setting [20]) amounted to 38%; in assay [7] (setting [20]) it was 78%.

The pEC50 is the negative decadic logarithm of the EC50, by convention in mol/L. Higher therefore signals a low EC50. For orientation: pIC50 means the negative decadic logarithm of the IC50, by convention in mol/L.
